According to patent US20250177408A1, “INHIBITOR OF INTERACTION BETWEEN YAP/TAZ AND TEAD, PREPARATION THEREOF, PHARMACEUTICAL COMPOSITION THEREOF AND USE THEREOF” (ETERN BIOPHARMA (SHANGHAI) CO., LTD., priority 2022, published 2025):
Structures can show the parent of a compound that is named as a salt.

Experiments:
MSTO-211H cells = assay: Cell proliferation inhibition experiment (CellTiter-Glo); assay type: cell-based; settings: Homo sapiens, 96 hours, read-out: Inhibitory activity of each compound on the proliferation of MSTO-211H cells (grades of IC50 values)
Description: In this example, the intracellular ATP was quantitatively determined by the CellTiter-Glo luminescence cell viability detection kit to detect the number of living cells in the culture.
Step 1: MSTO-211H (ATCC, CRL-2081TM) or NCI-H2052 (ATCC, CRL-5915TM) cells were inoculated in a 96-well plate at a density of 1500 cells per well with a volume of 100 μL per well, and the cells were incubated overnight in a 37° C., 5% carbon dioxide incubator. The culture medium used was RPMI1640 medium (GIBCO-A10491-01)+10% FBS (GIBCO-10099141C)+1% penicillin/streptomycin (Pen/Strep) (GIBCO-15070-063).
Step 2: The cells were treated with the compounds to be tested. The compounds to be tested were 3-fold diluted, and a total of 9 concentration gradients were set up; a certain volume of DMSO or the compounds to be tested was added to each well, respectively, and 2 replicates were set up for each concentration, and the final concentration of DMSO was controlled to be no higher than 0.5%. The cells were incubated for 96 hours in a 37° C., 5% carbon dioxide incubator.
Step 3: Cell viability was detected in the control group and treatment group using CellTiter-Glo Luminescent Cell Viability Assay kit (Promega, G7570). 50 μL of CellTiter-Glo was added to each well, mixed well, and incubated at room temperature for 10 minutes. The signal was read using En Vision® Multilabel Plate Reader (Perkin Elmer).
(§1) The inhibition percentage (%) was calculated using the following formula: […]
Using Graphpad Prism software, the IC50 values of the compounds inhibiting the CTG signal of cell proliferation activity was calculated.

[1] = target: YAP-TEAD protein interaction (His-TEAD1 (209-426) protein, Bio-YAP peptide (60-100)) (Homo sapiens, UniProt P28347); assay: YAP-TEAD protein interaction HTRF experiment; assay type: binding; settings: His-TEAD1 (209-426) 10 nM, Bio-YAP peptide 50 nM, read-out: Activity of each compound in blocking YAP-TEAD protein interaction (grades of IC50 values)
YAP-TEAD protein interaction (His-TEAD1 (209-426) protein, Bio-YAP peptide (60-100)), sequence (P28347 209-426): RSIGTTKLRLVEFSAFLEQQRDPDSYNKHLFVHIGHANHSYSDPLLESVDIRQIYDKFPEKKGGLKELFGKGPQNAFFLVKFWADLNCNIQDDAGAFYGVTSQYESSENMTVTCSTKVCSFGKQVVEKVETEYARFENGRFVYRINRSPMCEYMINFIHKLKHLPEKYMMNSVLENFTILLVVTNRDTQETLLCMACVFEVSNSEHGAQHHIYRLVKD
Description: In this example, the YAP-TEAD protein interaction HTRF experiment was used to detect the activity of each compound in blocking the YAP-TEAD protein interaction.
The experiment was carried out according to the following operation steps:
Step 1: His-TEAD1 (209-426) protein was added to a 384-well detection white plate to a final concentration of 10 nM, and buffer was used as the background signal well. The compounds to be tested were subjected to 3-fold dilution and a total of 10 concentration gradients were set up, and each diluted solution was mixed well. A certain volume of the compound to be tested was added to each well separately, 2 replicates were set for each concentration, and the final concentration of DMSO was controlled at 1%. Incubation was carried out at room temperature for 20 minutes. The amino acid sequence of TAED1 (209-426) used in this step is shown in SEQ ID NO: 1:
After mixing evenly, the mixture was incubated at room temperature for 10 minutes.
Step 3: Anti-His-Eu cryptate gold and streptavidin-XL665 were diluted according to the instructions and mixed in equal proportions. A certain volume of the detection reagent was added to the well, and the mixture was incubated at room temperature for 1 hour.
Step 4: The signal was detected using an Envision (Perkin Elmer) microplate reader at an excitation wavelength of 320 nm and emission wavelengths of 665 nm and 620 nm.
Step 5: The signal was calculated based on the ratio of Em665/Em620*10000.
as §1
The half-maximal inhibitory concentration (IC50) values were calculated using GraphPad Prism software.

Row | SMILES | IC50 (MSTO-211H cells) | IC50 [1]
1 | Cn1ncc2c(F)c(-c3c(Cl)c(F)cc4c3C[C@](c3ccccc3)([C@@H]3CCCN3)O4)c(C(N)=O)cc21 (atropisomer, axis not shown) [Compound I-28, (S)-5-((S)-5-Chloro-6-fluoro-2-phenyl-2-((S)-pyrrolidin-2-yl)-2,3-dihydrobenzofuran-4-yl)-4-fluoro-1-methyl-1H-indazole-6-carboxamide] | < 200 nM | < 50 nM
2 | [2H]C1([2H])CC[C@]([2H])([C@@]2(c3ccccc3)Cc3c(cc(F)c(Cl)c3-c3c(C(=O)NC)cc4c(c3F)Oc3c(cnn(CC(F)F)c3=O)O4)O2)N1 (atropisomer, axis not shown) [Compound 156, (S)-8-((S)-5-Chloro-6-fluoro-2-phenyl-2-((S)-pyrrolidin-2-yl-2,5,5-d3)-2,3-dihydrobenzofuran-4-yl)-2-(2,2-difluoroethyl)-9-fluoro-N-methyl-1-oxo-1,2-dihydrobenzo[5,6][1,4]dioxo [2,3-d]pyridazine-7-carboxamide] | < 200 nM | < 50 nM
3 | [2H]C1([2H])CC[C@]([2H])([C@@]2(c3ccccc3)Cc3c(cc(F)c(Cl)c3-c3c(C(=O)NC)cc4c(c3F)Oc3c(cnn(CCC(F)(F)F)c3=O)O4)O2)N1 (atropisomer, axis not shown) [Compound 159, (S)-8-((S)-5-Chloro-6-fluoro-2-phenyl-2-((S)-pyrrolidin-2-yl-2,5,5-d3)-2,3-dihydrobenzofuran-4-yl)-9-fluoro-N-methyl-1-oxo-2-(3,3,3-trifluoropropyl)-1,2-dihydroxybenzo [5,6][1,4]dioxo [2,3-d]pyridazine-7-carboxamide] | < 200 nM | < 50 nM
4 | [2H]C1([2H])CC[C@]([2H])([C@@]2(c3ccccc3)Cc3c(cc(F)c(Cl)c3-c3c(C(N)=O)cc4c(c3F)Oc3c(cnn(CC(F)(F)F)c3=O)O4)O2)N1 (atropisomer, axis not shown) [Compound 153, (S)-8-((S)-5-Chloro-6-fluoro-2-phenyl-2-((S)-pyrrolidin-2-yl-2,5,5-d3)-2,3-dihydrobenzofuran-4-yl)-9-fluoro-1-oxo-2-(2,2,2-trifluoroethyl)-1,2-dihydroxybenzo[5,6][1,4] dioxo [2,3-d]pyridazine-7-carboxamide] | < 200 nM | < 50 nM
5 | NC(=O)c1cc2c(c(F)c1-c1c(Cl)c(F)cc3c1C[C@](c1ccccc1)([C@@H]1CCCN1)O3)Oc1c(cnn(CC(F)F)c1=O)O2 (atropisomer, axis not shown) [Compound 120, (S)-8-((S)-5-Chloro-6-fluoro-2-phenyl-2-((S)-pyrrolidin-2-yl)-2,3-dihydrobenzofuran-4-yl)-9-fluoro-2-(2,2-difluoroethyl)-1-oxo-1,2-dihydrobenzo[5,6][1,4]dioxo[2,3-d]pyridazine-7-carboxamide] | < 200 nM | < 50 nM
6 | NC(=O)c1cc2c(c(F)c1-c1c(Cl)c(F)cc3c1C[C@](c1ccccc1)([C@@H]1CCCN1)O3)Oc1c(ncn(CCF)c1=O)O2 (atropisomer, axis not shown) [Compound 137, (S)-7-((S)-5-Chloro-6-fluoro-2-phenyl-2-((S)-pyrrolidin-2-yl)-2,3-dihydrobenzofuran-4-yl)-6-fluoro-3-(2-fluoroethyl)-4-oxo-3,4-dihydrobenzo[5,6][1,4]dioxo [2,3-d]pyrimidine-8-carboxamide] | < 200 nM | < 50 nM
7 | NC(=O)c1cc2c(c(F)c1-c1c(Cl)c(F)cc3c1C[C@](c1ccccc1)([C@@H]1CCCN1)O3)Oc1cn[nH]c(=O)c1O2 (atropisomer, axis not shown) [Compound 108, (S)-8-((S)-5-Chloro-6-fluoro-2-phenyl-2-((S)-pyrrolidin-2-yl)-2,3-dihydrobenzofuran-4-yl)-9-fluoro-4-oxo-3,4-dihydrobenzo[5,6][1,4]dioxo [2,3-d]pyridazine-7-carboxamide] | 500 to 5000 nM | < 50 nM
8 | NC(=O)c1cc2c(c(F)c1-c1c(Cl)c(F)cc3c1C[C@](c1ccccc1)([C@@H]1CCCN1)O3)Oc1ncn(CCF)c(=O)c1O2 (atropisomer, axis not shown) [Compound 138, (S)-8-((S)-5-Chloro-6-fluoro-2-phenyl-2-((S)-pyrrolidin-2-yl)-2,3-dihydrobenzofuran-4-yl)-9-fluoro-3-(2-fluoroethyl)-4-oxo-3,4-dihydrobenzo [5,6][1,4]dioxo [2,3-d]pyrimidine-7-carboxamide] | < 200 nM | < 50 nM
9 | CNC[C@@]1(c2ccccc2)Cc2c(cc(F)c(Cl)c2-c2c(C(N)=O)cc3c(c2F)OCc2nn(C)cc2-3)O1 (atropisomer, axis not shown) [Compound 41, (S)-7-((S)-5-Chloro-6-fluoro-2-((methylamino)methyl)-2-phenyl-2,3-dihydrobenzofuran-4-yl)-6-fluoro-2-methyl-2,4-dihydrochromeno[3,4-c]pyrazole-8-carboxamide] | < 200 nM | < 50 nM
10 | NC(=O)c1cc2cn[nH]c2c(F)c1-c1c(Cl)c(F)cc2c1C[C@](c1ccccc1)([C@@H]1CCCN1)O2 (atropisomer, axis not shown) [Compound I-30, (S)-6-((S)-5-Chloro-6-fluoro-2-phenyl-2-((S)-pyrrolidin-2-yl)-2,3-dihydrobenzofuran-4-yl)-7-fluoro-1H-indazole-5-carboxamide] | 200 to 500 nM | < 50 nM
11 | NC(=O)c1cc2c(c(F)c1-c1c(Cl)c(F)cc3c1C[C@](c1ccccc1)([C@@H]1CCCN1)O3)Oc1c(cnn(C3CC(F)(F)C3)c1=O)O2 (atropisomer, axis not shown) [Compound 147, (S)-8-((S)-5-Chloro-6-fluoro-2-phenyl-2-((S)-pyrrolidin-2-yl)-2,3-dihydrobenzofuran-4-yl)-2-(3,3-difluorocyclobutyl)-9-fluoro-1-oxo-1,2-dihydrobenzo[5,6][1,4]dioxa[2,3-d]pyridazine-7-carboxamide] | < 200 nM | < 50 nM
12 | O=C(NC1CC1)c1cc2c(c(F)c1-c1c(Cl)c(F)cc3c1C[C@](c1ccccc1)([C@@H]1CCCN1)O3)Oc1c(cnn(CC(F)F)c1=O)O2 (atropisomer, axis not shown) [Compound 160] | < 200 nM | < 50 nM
13 | CO[C@H]1C[C@H](CNC[C@@]2(c3ccccc3)Cc3c(cc(F)c(Cl)c3-c3c(C(N)=O)cc4c(c3F)OCc3nn(C)cc3-4)O2)C1 (atropisomer, axis not shown) [Compound 84, (S)-7-((S)-5-Chloro-6-fluoro-2-(((((1r,3S)-3-methoxycyclobutyl)methyl)amino)methyl)-2-phenyl-2,3-dihydrobenzofuran-4-yl)-6-fluoro-2-methyl-2,4-dihydrochromeno[3,4-c]pyrazole-8-carboxamide formate] | 200 to 500 nM | < 50 nM
14 | COCCCNC[C@@]1(c2ccccc2)Cc2c(cc(F)c(Cl)c2-c2c(C(N)=O)cc3c(c2F)OCc2nn(C)cc2-3)O1 (atropisomer, axis not shown) [Compound 83, (S)-7-((S)-5-Chloro-6-fluoro-2-(((3-methoxypropyl)amino)methyl)-2-phenyl-2,3-dihydrobenzofuran-4-yl)-6-fluoro-2-methyl-2,4-dihydrochromeno[3,4-c]pyrazole-8-carboxamide formate] | < 200 nM | 
